Measurements published in publication PMC4965013, “Open Source Drug Discovery with the Malaria Box Compound Collection for Neglected Diseases and Beyond” (PLoS Pathogens, 2016).

Tests used:
[1] = tested on: P. falciparum 3D7 trophozoites; experiment: Metabolomic fingerprint profiling LC-MS; format: cell-based, Plasmodium falciparum; set-up: UDP-D-glucose / ADP-D-glucose: unit not given here
P. falciparum = experiment: EC50 listed in S2 Table Metabolomics (used to set the concentration tested); format: cell-based; conditions: Plasmodium falciparum; EC50 used for Factor_XEC50 in metabolomics; read-out: EC50_nM
[2] = metabolite level change after treatment

Question: Which results are given for `CCCCCCOC(=O)C1=C(C)NC(=O)NC1c1ccccc1F` (centres unmarked) [MMV007686]?
Answer: Acetyllysine ([1]; S2 Table Metabolomics, metabolite Acetyllysine): -0.6021; N-acetyl-L-ornithine ([1]; S2 Table Metabolomics, metabolite N-acetyl-L-ornithine): -0.5247; N-carbamoyl-L-aspartate ([1]; S2 Table Metabolomics, metabolite N-carbamoyl-L-aspartate): -0.1545; NADPH ([1]; S2 Table Metabolomics, metabolite NADPH): -0.6448; dAMP ([1]; S2 Table Metabolomics, metabolite dAMP): -0.475; dCMP ([1]; S2 Table Metabolomics, metabolite dCMP): 0.2166; dTDP ([1]; S2 Table Metabolomics, metabolite dTDP): -0.8182; dTMP ([1]; S2 Table Metabolomics, metabolite dTMP): -0.71; dTTP ([1]; S2 Table Metabolomics, metabolite dTTP): -0.2978; dihydroorotate ([1]; S2 Table Metabolomics, metabolite dihydroorotate): 0.04156; orotate ([1]; S2 Table Metabolomics, metabolite orotate): 0.1913; DLH ([1]; S2 Table Metabolomics, peptide DLH): 0.3631; DLS/SDL/SID ([1]; S2 Table Metabolomics, peptide DLS/SDL/SID): 0.06173; PD ([1]; S2 Table Metabolomics, peptide PD): -0.2456; PEE ([1]; S2 Table Metabolomics, peptide PEE): -0.1279; PVNF ([1]; S2 Table Metabolomics, peptide PVNF): 0.4591; 3-phosphoglycerate ([1]; metabolite 3-phosphoglycerate, S2 Table Metabolomics): 0.4561; ADP-D-glucose ([1]; metabolite ADP-D-glucose, S2 Table Metabolomics): 0.08489; ATP ([1]; metabolite ATP, S2 Table Metabolomics): -0.09097; CDP ([1]; metabolite CDP, S2 Table Metabolomics, change in metabolite level after compound treatment): -1.124; D-sedoheptulose-1/7-phosphate ([1]; metabolite D-sedoheptulose-1/7-phosphate, S2 Table Metabolomics, change in metabolite level after compound treatment): -0.6707; FAD ([1]; metabolite FAD, S2 Table Metabolomics): -0.2456; GMP ([1]; metabolite GMP, S2 Table Metabolomics, change in metabolite level after compound treatment): 0.9608; NAD+ ([1]; metabolite NAD+, S2 Table Metabolomics): -0.04958; NADP+ ([1]; metabolite NADP+, S2 Table Metabolomics): -0.001559; Octoluse Bisphosphate ([1]; metabolite Octoluse Bisphosphate, S2 Table Metabolomics, change in metabolite level after compound treatment): -0.1324; Pyroglutamic acid ([1]; metabolite Pyroglutamic acid, S2 Table Metabolomics): 0.9271; UDP-D-glucose ([1]; metabolite UDP-D-glucose, S2 Table Metabolomics): -0.1029; UDP-D-glucuronate ([1]; metabolite UDP-D-glucuronate, S2 Table Metabolomics): -0.1902; UDP-N-acetyl-glucosamine ([1]; metabolite UDP-N-acetyl-glucosamine, S2 Table Metabolomics): -0.1743; UDP ([1]; metabolite UDP, S2 Table Metabolomics, change in metabolite level after compound treatment): -1.121; UMP ([1]; metabolite UMP, S2 Table Metabolomics, change in metabolite level after compound treatment): 0.7368; UTP ([1]; metabolite UTP, S2 Table Metabolomics, change in metabolite level after compound treatment): -0.5193; a-ketoglutarate ([1]; metabolite a-ketoglutarate, S2 Table Metabolomics): 0.8749; citrate/isocitrate ([1]; metabolite citrate/isocitrate, S2 Table Metabolomics, change in metabolite level after compound treatment): 0.6672; cytidine ([1]; metabolite cytidine, S2 Table Metabolomics): 0.271; dATP ([1]; metabolite dATP, S2 Table Metabolomics): -0.2157; dGMP/AMP ([1]; metabolite dGMP/AMP, S2 Table Metabolomics, change in metabolite level after compound treatment): -0.5696; fumarate ([1]; metabolite fumarate, S2 Table Metabolomics, change in metabolite level after compound treatment): 0.5304; glucose-1/6-phosphate ([1]; metabolite glucose-1/6-phosphate, S2 Table Metabolomics, change in metabolite level after compound treatment): -0.0799; glycerate ([1]; metabolite glycerate, S2 Table Metabolomics, change in metabolite level after compound treatment): 0.5979; guanine ([1]; metabolite guanine, S2 Table Metabolomics, change in metabolite level after compound treatment): -0.1143; guanosine ([1]; metabolite guanosine, S2 Table Metabolomics, change in metabolite level after compound treatment): -0.2083; hypoxanthine ([1]; metabolite hypoxanthine, S2 Table Metabolomics): 0.8142; indole ([1]; metabolite indole, S2 Table Metabolomics): 0.4434; inosine ([1]; metabolite inosine, S2 Table Metabolomics, change in metabolite level after compound treatment): 0.6048; 2_3-Diphosphoglyceric acid [1, 2]: -0.3849; 4-phosphopantothenate [1, 2]: -0.1203; 6-phospho-D-gluconate [1, 2]: -0.2727; FMN [1, 2]: -0.1451; IMP [1, 2]: -0.1074; Pyrophosphate [1, 2]: -0.313; Sedoheptoluse bisphosphate [1, 2]: -0.1202; cyclic-AMP [1, 2]: -0.174; glutathione disulfide [1, 2]: -0.2538; lactate [1, 2]: 0.3995; myo-inositol [1, 2]: 0.04912; nicotinate ([1]; metabolite nicotinate, S2 Table Metabolomics): 0.5888; ornithine ([1]; metabolite ornithine, S2 Table Metabolomics): 0.3712; phosphoenolpyruvate ([1]; metabolite phosphoenolpyruvate, S2 Table Metabolomics): 0.6171; pyruvate ([1]; metabolite pyruvate, S2 Table Metabolomics, change in metabolite level after compound treatment): 0.7724; ribose-phosphate ([1]; metabolite ribose-phosphate, S2 Table Metabolomics): 0.6092; sarcosine/alanine ([1]; metabolite sarcosine/alanine, S2 Table Metabolomics, change in metabolite level after compound treatment): 0.1752; sn-glycerol-3-phosphate ([1]; metabolite sn-glycerol-3-phosphate, S2 Table Metabolomics): 0.5669; succinate/methylmalonic acid ([1]; metabolite succinate/methylmalonic acid, S2 Table Metabolomics, change in metabolite level after compound treatment): 0.1316; uridine ([1]; metabolite uridine, S2 Table Metabolomics, change in metabolite level after compound treatment): 0.4569; xanthosine ([1]; metabolite xanthosine, S2 Table Metabolomics, change in metabolite level after compound treatment): 0.7187; EC50 (P. falciparum): 106 nM
